The text below walks through data of patent publication US11591341B2 (ALIGOS THERAPEUTICS, INC., priority 2019, dated 2023).

The test deals with HBV. Put plainly: HBV-DNA Antiviral Assay Using HepG2.117 Cells (intracellular HBV DNA by qPCR). The class given is cell-based, hepatitis B virus (genotype D). To be noted: Hepatitis B virus, HepG2.117. The essentials:
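HepG2.117 cells (genotype D HBV, Tet-off) were induced by doxycycline withdrawal and treated for 3 days with 9 concentrations in 4-fold dilution, 2% DMSO final. Intracellular HBV DNA was measured by qPCR against a standard curve, with ATPlite viability read in parallel. EC50, EC90 and CC50 came from fits against the DMSO control.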
With `CC(C)Oc1ccc(-n2c(C(=O)N[C@H](C)c3ccc(C#N)cc3)c3n(c2=O)CCN(C(=O)c2ccc(Br)c(Cl)c2)C3)cc1` (stereo in doubt) [Example 233, 7-(4-bromo-3-chloro-benzoyl)-2-(4-isopropoxyphenyl)-3-oxo-N-[rac-(1R)-1-(4-cyanophenyl)ethyl]-6,8-dihydro-5H-imidazo[1,5-a]pyrazine-1-carboxamide], the concentration giving a half-maximal response (EC50) (as a rule, the midpoint of the concentration-response curve) lay in the range of 0.1 to 0.5 µM. In turn, `CC(C)Oc1ccc(-n2c(C(=O)N[C@@H](C)c3ccc(C#N)cc3)c3n(c2=O)CCN(C(=O)c2ccc(Br)c(Cl)c2)C3)cc1` (stereo in doubt) [Example 234, 7-(4-bromo-3-chloro-benzoyl)-2-(4-isopropoxyphenyl)-3-oxo-N-[rac-(1S)-1-(4-cyanophenyl)ethyl]-6,8-dihydro-5H-imidazo[1,5-a]pyrazine-1-carboxamide] yielded an EC50 of 0.1 to 0.5 µM. As to `COc1ccc([C@H](C)NC(=O)c2c3n(c(=O)n2-c2ccc(OC(C)C)cc2)CCN(C(=O)c2ccc(Br)c(Cl)c2)C3)c(F)c1` (stereo in doubt) [Example 235, 7-(4-bromo-3-chloro-benzoyl)-2-(4-isopropoxyphenyl)-3-oxo-N-[rac-(1S)-1-(2-fluoro-4-methoxy-phenyl)ethyl]-6,8-dihydro-5H-imidazo[1,5-a]pyrazine-1-carboxamide], the EC50 lay within 0.1 to 0.5 µM. In turn, `C[C@@H](c1ccccc1)N1C[C@@H](O)Cn2c(c3n(c2=O)CCN(C(=O)c2ccc(Br)c(Cl)c2)C3)C1=O` (stereo in doubt) [Example 237, (11RS)-2-(4-bromo-3-chloro-benzoyl)-11-hydroxy-13-[(1S)-1-phenylethyl]-4,7,9,13-tetrazatricyclo[7.5.0.0^2,7]tetradec-1-ene-8,14-dione] yielded an EC50 of 0.5 to 5 µM. In turn, `C[C@@H](c1ccccc1)N1C[C@H](O)Cn2c(c3n(c2=O)CCN(C(=O)c2ccc(Br)c(Cl)c2)C3)C1=O` (stereo in doubt) [Example 238, (11SR)-4-(4-bromo-3-chloro-benzoyl)-11-hydroxy-13-[(1S)-1-phenylethyl]-4,7,9,13-tetrazatricyclo[7.5.0.0^2,7]tetradec-1-ene-8,14-dione] came in with an EC50 of 0.1 to 0.5 µM. On to `COc1ccc([C@@H](C)NC(=O)c2c3n(c(=O)n2-c2ccc(OC(C)C)cc2)CCN(C(=O)c2ccc(Br)c(Cl)c2)C3)c(F)c1` (stereo in doubt) [Example 245, 7-(4-bromo-3-chloro-benzoyl)-2-(4-isopropoxyphenyl)-3-oxo-N-[rac-(1R)-1-(2-fluoro-4-methoxy-phenyl)ethyl]-6,8-dihydro-5H-imidazo[1,5-a]pyrazine-1-carboxamide], for which the half-maximal effective concentration (EC50) is < 0.1 µM. In the case of `COc1ccc(-n2c(C(=O)N[C@@H](c3ccccc3)C(F)F)c3n(c2=O)CCN(C(=O)c2ccc(Br)c(Cl)c2)C3)cc1` (stereo in doubt) [Example 252, 7-(4-bromo-3-chloro-benzoyl)-2-(4-methoxyphenyl)-3-oxo-N-[rac-(1S)-2,2-difluoro-1-phenyl-ethyl]-6,8-dihydro-5H-imidazo[1,5-a]pyrazine-1-carboxamide] it was 0.1 to 0.5 µM. For `COc1ccc(-n2c(C(=O)N[C@H](c3ccccc3)C(F)F)c3n(c2=O)CCN(C(=O)c2ccc(Br)c(Cl)c2)C3)cc1` (stereo in doubt) [Example 253, 7-(4-bromo-3-chloro-benzoyl)-2-(4-methoxyphenyl)-3-oxo-N-[rac-(1R)-2,2-difluoro-1-phenyl-ethyl]-6,8-dihydro-5H-imidazo[1,5-a]pyrazine-1-carboxamide] the value was 0.1 to 0.5 µM; for `C[C@@H](NC(=O)c1c2n(c(=O)n1-c1ccc(OCC(F)(F)F)cc1)CCN(C(=O)c1ccc(Br)c(Cl)c1)C2)c1ccccc1F` (stereo in doubt) [Example 262, 7-(4-bromo-3-chloro-benzoyl)-3-oxo-N-[rac-(1R)-1-(2-fluorophenyl)ethyl]-2-[4-(2,2,2-trifluoroethoxy)phenyl]-6,8-dihydro-5H-imidazo[1,5-a]pyrazine-1-carboxamide], 0.1 to 0.5 µM.

As to `C[C@H](NC(=O)c1c2n(c(=O)n1-c1ccc(OCC(F)(F)F)cc1)CCN(C(=O)c1ccc(Br)c(Cl)c1)C2)c1ccccc1F` (stereo in doubt) [Example 264, 7-(4-bromo-3-chloro-benzoyl)-3-oxo-N-[rac-(1S)-1-(2-fluorophenyl)ethyl]-2-[4-(2,2,2-trifluoroethoxy)phenyl]-6,8-dihydro-5H-imidazo[1,5-a]pyrazine-1-carboxamide], the EC50 is 0.5 to 5 µM.

In the case of `C[C@@H](Oc1ccc(-n2c(C(=O)NCc3ccccc3)c3n(c2=O)CCN(C(=O)c2ccc(Br)c(Cl)c2)C3)cc1)C(F)(F)F` (stereo in doubt) [Example 282, N-benzyl-7-(4-bromo-3-chloro-benozyl)-3-oxo-2-[4-[rac-(1R)-2,2,2-trifluoro-1-methyl-ethoxy]phenyl]-6,8-dihydro-5H-imidazo[1,5-a]pyrazine-1-carboxamide], the EC50 was 0.5 to 5 µM. The compound `C[C@H](Oc1ccc(-n2c(C(=O)NCc3ccccc3)c3n(c2=O)CCN(C(=O)c2ccc(Br)c(Cl)c2)C3)cc1)C(F)(F)F` (stereo in doubt) [Example 283, N-benzyl-7-(4-bromo-3-chloro-benozyl)-3-oxo-2-[4-[rac-(1S)-2,2,2-trifluoro-1-methyl-ethoxy]phenyl]-6,8-dihydro-5H-imidazo[1,5-a]pyrazine-1-carboxamide] had an EC50 of 0.5 to 5 µM.

Consider `COc1ccc(CN2Cc3c4n(c(=O)n3C[C@H](O)C2)CCN(C(=O)c2ccc(Br)c(Cl)c2)C4)c(F)c1` (stereo in doubt) [Example 288, rac-(11R)-4-(4-bromo-3-chloro-benzoyl-13-[(2-fluoro-4-methoxy-phenyl)methyl]-11-hydroxy-4,7,9,13-tetrazatricyclo[7.5.0.0^2,7]tetradec-1-ene-8,14-dione], for which the concentration giving a half-maximal response (EC50) was in the range of 0.1 to 0.5 µM. `COc1ccc(CN2Cc3c4n(c(=O)n3C[C@@H](O)C2)CCN(C(=O)c2ccc(Br)c(Cl)c2)C4)c(F)c1` (stereo in doubt) [Example 289, rac-(11S)-4-(4-bromo-3-chloro-benzoyl)-13-[(2-fluoro-4-methoxy-phenyl)methyl]-11-hydroxy-4,7,9,13-tetrazatricyclo[7,5.0.0^2,7]tetradec-1-ene-8,14-dione]: the EC50 fell in the range of 0.1 to 0.5 µM. Take `C[C@@H](NC(=O)c1c2n(c(=O)n1-c1ccc(OC3CC3)cc1)CCN(C(=O)c1ccc(Br)c(Cl)c1)C2)c1ccc(OC(F)(F)F)cc1F` (stereo in doubt) [Example 290, 7-(4-bromo-3-chloro-benzoyl)-2-[4-(cyclopropoxy)phenyl]-3-oxo-N-[rac-(1R)-1-[2-fluoro-4-(trilfuoromethoxy)phenyl]ethyl]-6,8-dihydro-5H-imidazo[1,5-a]pyrazine-1-carboxamide]: the half-maximal effective concentration (EC50) fell in the range of 0.5 to 5 µM. In turn, `C[C@H](NC(=O)c1c2n(c(=O)n1-c1ccc(OC3CC3)cc1)CCN(C(=O)c1ccc(Br)c(Cl)c1)C2)c1ccc(OC(F)(F)F)cc1F` (stereo in doubt) [Example 291, 7-(4-bromo-3-chloro-benzoyl)-2-[4-(cyclopropoxy)phenyl]-3-oxo-N-[rac-(1S)-1-[2-fluoro-4-(trifluoromethoxy)phenyl]ethyl]-6,8-dihydro-5H-imidazo[1,5-a]pyrazine-1-carboxamide] had a 50% effective concentration (EC50) of 0.5 to 5 µM.

As to `CO[C@@H]1CN(Cc2ccccc2)Cc2c3n(c(=O)n2C1)CCN(C(=O)c1ccc(Br)c(Cl)c1)C3` (stereo in doubt) [Example 309, rac-(11R)-13-benzyl-4-(4-bromo-3-choro-benzoyl)-11-methoxy-4,7,9,13-tetrazatricyclo[7.5.0.0^2,7]tetradec-1-ene-8,14-dione], the EC50 fell in the range of 0.5 to 5 µM.

In turn, `CO[C@H]1CN(Cc2ccccc2)Cc2c3n(c(=O)n2C1)CCN(C(=O)c1ccc(Br)c(Cl)c1)C3` (stereo in doubt) [Example 310, rac-(11S)-13-benzyl-4-(4-bromo-3-chloro-benzoyl)-11-methoxy-4,7,9,13-tetrazatricyclo[7.5.0.0^2,7]tetradec-1-ene-8,14-dione] returned an EC50 of 0.1 to 0.5 µM. `C[C@H](NC(=O)c1c2n(c(=O)n1-c1ccc(OC3CC3)cc1)CCN(C(=O)c1ccc(Br)c(Cl)c1)C2)c1ccc(OCC(N)=O)cc1F` (stereo in doubt) [Example 315, 7-(4-bromo-3-chloro-benzoyl)-2-[4-(cyclopropoxy)phenyl]-3-oxo-N-[rac-(1R)-1-[4-(2-amino-2-oxo-ethoxy)-2-fluoro-phenyl]ethyl]-6,8-dihydro-5H-imidazo[1,5-a]pyrazine-1-carboxamide] registered an EC50 of 0.5 to 5 µM. For `C[C@@H](NC(=O)c1c2n(c(=O)n1-c1ccc(OC3CC3)cc1)CCN(C(=O)c1ccc(Br)c(Cl)c1)C2)c1ccc(OCC(N)=O)cc1F` (stereo in doubt) [Example 316, 7-(4-bromo-3-chloro-benzoyl)-2-[4-(cyclopropoxy)phenyl]-3-oxo-N-[rac-(1S)-1-[4-(2-amino-2-oxo-ethoxy)-2-fluoro-phenyl]ethyl]-6,8-dihydro-5H-imidazo[1,5-a]pyrazine-1-carboxamide], the half-maximal effective concentration (EC50) is < 0.1 µM.

On to `C[C@@H](NC(=O)c1c2n(c(=O)n1-c1ccc(OCC(F)(F)F)cc1)CCN(C(=O)c1ccc(Br)c(Cl)c1)C2)c1ccc(OC(F)F)cc1F` (stereo in doubt) [Example 317, 7-(4-bromo-3-chloro-benzoyl)-3-oxo-N-[rac-(1R)-1-[4-(difluoromethoxy)-2-fluoro-phenyl]ethyl]-2-[4-(2,2,2-trifluoroethoxy)phenyl]-6,8-dihydro-5H-imidazo[1,5-a]pyrazine-1-carboxamide], for which the concentration for a half-maximal effect (EC50) lay in the range of 0.5 to 5 µM. As to `C[C@H](NC(=O)c1c2n(c(=O)n1-c1ccc(OCC(F)(F)F)cc1)CCN(C(=O)c1ccc(Br)c(Cl)c1)C2)c1ccc(OC(F)F)cc1F` (stereo in doubt) [Example 318, 7-(4-bromo-3-chloro-benzoyl)-3-oxo-N-[rac-(1S)-1-[4-(difluoromethoxy)-2-fluoro-phenyl]ethyl]-2-[4-(2,2,2-trifluoroethoxy)phenyl]-6,8-dihydro-5H-imidazo[1,5-a]pyrazine-1-carboxamide], the EC50 lay in the range of 0.1 to 0.5 µM.
